{"source": "patent US9499790B2", "about": "“Method for promoting differentiation of pluripotent stem cells into cardiac muscle cells” (Kyoto University, priority 2010, dated 2016)", "molecules": {"B1": {"name": "G-CSF: granulocyte-colony stimulating factor (protein, UniProt P09919 31-207, looked up)", "Granulocyte …": "TPLGPASSLPQSFLLKCLEQVRKIQGDGAALQEKLVSECATYKLCHPEELVLLGHSLGIPWAPLSSCPSQALQLAGCLSQLHSGLFLYQGLLQALEGISPELGPTLDTLQLDVADFATTIWQQMEELGMAPALQPTQGAMPAFASAFQRRAGGVLVASHLQSFLEVSYRVLRHLAQP"}}, "assay_type_in_all_cases": "cell-based", "key": {"[1]": {"test_system": "Human ES cell line (Kh-1 line)", "assay": "Cardiac muscle cell differentiation (GFP expression level, number of beating colonies)", "details": "N11474 10 μM during day 4 to 14", "protocol": "The effect of promoting differentiation of each of the ES/iPS cells into cardiac muscle cells were confirmed for N11474 and KY02111 with the GFP expression level and number of beating colonies used as the indicators. Human ES cell line (Kh-1 line) (Suemori, H., et al., Efficient establishment of human embryonic stem cell lines and long-term maintenance with stable karyotype by enzymatic bulk passage. Biochem Biophys Res Commun. 345(3), 926-32 (2006)) (incorporated herein by reference) was seeded in a 6-well plate (Asahi Glass/5816-006: Ezview culture plate) in 1.2×10^6 cells/well and cultured for 22 days, with BMP4 (10 ng/ml) added during day 0 to 4 of culture and N11474 (10 μM) or KY02111 (5 μM) added during day 4 to 14 of culture. Human iPS cell lines (253G1, IMR90-1, IMR90-4 and RCHIPC0003) (Takahashi, K., et al., Induction of pluripotent stem cells from adult human fibroblasts by defined factors. Cell. 131(5), 861-72 (2007); Yu, J., et al., Induced pluripotent stem cell lines derived from human somatic cells. Science. 318(5858), 1917-20 (2007)) (these references are herein incorporated by reference) were cultured for the cardiac muscle cell differentiation in the same manner as for the human ES cells. […] KY02111 (5 μM) was added for 3 days during day 6 to 9 of cardiac muscle cell differentiation culture and the beating colonies of cardiac muscle cells were analyzed at day 9. […]"}, "Monkey ES cells": {"test_system": "Monkey ES cells", "assay": "Cardiac muscle cell differentiation of monkey ES cells, 6-well plate, GFP expression observed at day 14", "details": "GFP at day 14", "from_the_text": "In the same manner as Example 2, the effects of promoting cardiac muscle cell differentiation were compared among KY02111 and N11474, known Wnt signaling inhibitors (IWP2, XAV939 and IWR1), proteins known to be effective in promoting cardiac muscle cell differentiation (G-CSF, IGFBP4, Dkk1 and cytokines (a mixture of bFGF, BMP4, VEGF, DKK1 and Activin A)).\nThe effect of BIO, a Wnt signaling activator, on the effect of promoting cardiac muscle cell differentiation of KY02111, XAV939 and IWP2 was analyzed. […]"}, "Human iPS (IMR90-4)": {"test_system": "Human iPS (IMR90-4)", "assay": "Number of beating colonies of cardiac muscle cells", "details": "N11474 10 μM during day 4 to 14", "protocol": "The effect of promoting differentiation of each of the ES/iPS cells into cardiac muscle cells were confirmed for N11474 and KY02111 with the GFP expression level and number of beating colonies used as the indicators. Human ES cell line (Kh-1 line) (Suemori, H., et al., Efficient establishment of human embryonic stem cell lines and long-term maintenance with stable karyotype by enzymatic bulk passage. Biochem Biophys Res Commun. 345(3), 926-32 (2006)) (incorporated herein by reference) was seeded in a 6-well plate (Asahi Glass/5816-006: Ezview culture plate) in 1.2×10^6 cells/well and cultured for 22 days, with BMP4 (10 ng/ml) added during day 0 to 4 of culture and N11474 (10 μM) or KY02111 (5 μM) added during day 4 to 14 of culture. Human iPS cell lines (253G1, IMR90-1, IMR90-4 and RCHIPC0003) (Takahashi, K., et al., Induction of pluripotent stem cells from adult human fibroblasts by defined factors. Cell. 131(5), 861-72 (2007); Yu, J., et al., Induced pluripotent stem cell lines derived from human somatic cells. Science. 318(5858), 1917-20 (2007)) (these references are herein incorporated by reference) were cultured for the cardiac muscle cell differentiation in the same manner as for the human ES cells. The cardiac muscle cells from mouse ES cells (R1) were differentiated in accordance with the method described in the reference (Transient inhibition of BMP signaling by Noggin induces cardiomyocyte differentiation of mouse embryonic stem cells. Yuasa S, et al. Nat. Biotechnol. 2005 May; 23(5): 607-11; incorporated herein by reference). KY02111 (5 μM) was added for 3 days during day 6 to 9 of cardiac muscle cell differentiation culture and the beating colonies of cardiac muscle cells were analyzed at day 9. Monkey ES cells (CMK6.4) were cultured for cardiac muscle cell differentiation in the same manner as in the above (2)."}, "[2]": {"test_system": "monkey ES cell line (CMK 6.4 cynomolgus monkey ES cells)", "assay": "Screening of library compounds: GFP expression under alpha-MHC promoter, 96-well plates", "details": "about 1 to 5 μM compound/well during day 6 to 14; HCS system", "protocol": "A vector expressing green fluorescent protein (GFP) under control of promoter of α-MHC gene, a marker of cardiac muscle cell differentiation, was introduced into monkey ES cell line (CMK 6.4 cynomolgus monkey ES cells) and the cells were seeded on 96-well culture plates (Greiner/655090: 96 well FIA black plate) in 5.0×10^3 cells/well, and cultured for 14 days in an IMDM-based differentiation medium for cardiac muscle cells (200 ml. IMDM (Sigma 13390) containing 50 ml bovine fetal serum (GIBCO 10099-141), 2.5 ml MEM non-essential amino acid solution (Sigma M7145), 2.5 ml penicillin-streptomycin (GIBCO 15140), 2.5 ml 200 mM L-glutamine, 2 μl 2-mercaptoethanol (Sigma M7522), 255 μl 5N NaOH). During day 6 to 14 of culture, 9,600 library compounds were added into separate wells (about 1 to 5 μM compound/well). Then, at […] of culture, GFP expression level was determined by using HCS (high contents screening) system (Molecular device/MetaMorph imaging system)."}, "[3]": {"test_system": "Wnt signaling target genes in human iPS cells", "assay": "Gene expression analysis by DNA array and quantitative polymerase chain reaction", "details": "FIG. 9", "protocol": "(in the order of the genes whose expression were reduced most 12 hours later) HOXA1, MSGN1, NKD1, T, TNFRSF11B, DKK1, DKK4, CDX2, MSX1, NODAL, FGF4, PAPPA, PRRX1, LRAT, CYP1B1, SLC34A2, AXIN2, LGL1, SPS, MIXL1, APCDD1 and DSEL. […] The analyzed genes were as follows: MSGN1, HOXA1; T, MIXL1; Dkk1, AXIN2; NODAL and FGF4 (all known as Wnt signaling target genes)."}}}
{"molecule": "COc1ccc2nc(NC(=O)Cc3ccc(OC)c(OC)c3)sc2c1", "note": "[N11474]", "values": [{"measurement": "Beating cardiac muscle cell differentiation efficiency (Control (DMSO) = 100%)", "setting": "[1]; Human ES (Kh-1)", "result": "1100% (N11474)"}, {"measurement": "GFP expression level", "setting": "[1]; at day 14 and after of culture, FIG. 6", "result": "significant increase"}, {"measurement": "increase in the GFP expression level", "setting": "Monkey ES cells; 10 μM during day 4 to 10", "result": 1000, "unit": "%"}, {"measurement": "Beating cardiac muscle cell differentiation efficiency (Control (DMSO) = 100%)", "setting": "Human iPS (IMR90-4)", "result": "4000% (N11474)"}, {"measurement": "GFP expression level", "setting": "[2]", "result": "high GFP expression levels"}]}
{"molecule": "Cc1ccc2nc(NC(=O)CSc3nc4c(c(=O)n3-c3ccccc3)SCC4)sc2c1", "note": "[IWP2, reference compound]", "values": [{"measurement": "expressions of MSGN1, HOXA1, T, MIXL1, Dkk1, AXIN2, NODAL and FGF4 (Wnt signaling target genes) by qPCR", "setting": "[3]", "result": "reduced"}, {"measurement": "effect of BIO on the compound's effect of cardiac muscle cell differentiation (GFP expression)", "setting": "Monkey ES cells; BIO 5 μM added together with the compound during day 4 to 10", "result": "inhibited"}]}
{"molecule": "COc1ccc(CCC(=O)Nc2nc3ccc([N+](=O)[O-])cc3s2)cc1OC", "note": "[KY01042, 2-(3-(3,4-dimethoxyphenyl)propanamide)-6-nitrobenzothiazole]", "values": [{"measurement": "increase in the GFP expression level", "setting": "Monkey ES cells; 10 μM during day 4 to 10", "result": 7000, "unit": "%"}]}
{"molecule": "O=C1Nc2cc(Br)ccc2/C1=C1/Nc2ccccc2/C1=N\\O", "note": "[BIO, reference compound]", "values": [{"measurement": "expressions of MSGN1, HOXA1, T, MIXL1, Dkk1, AXIN2, NODAL and FGF4 (Wnt signaling target genes) by qPCR", "setting": "[3]", "result": "increased"}]}
{"molecule": "B1", "values": [{"measurement": "increase in the GFP expression level", "setting": "Monkey ES cells; 5 ng/ml during day 4 to 10", "result": "about 250%"}]}
